Laboratory results from patent publication EP3046573B1, “AMYLIN ANALOGUES” (Zealand Pharma A/S, priority 2013, dated 2015).
pEC50: −log10 of the molar value. Like-named read-outs stand apart in the source and are kept apart here. Numbered stars: 1 amine (or outer) side, 2 acyl side, 3 side chain; on linkers, the order of the positions; unused ones are H or OH. Bridge positions count the residues as written; N and C are the ends. Square brackets hold non-standard residues; d marks the D form. Peptide text beside a SMILES is read from it. * marks the point of attachment. C20 diacid = O=C(O)CCCCCCCCCCCCCCCCCCC(=O)*; γGlu = O=C(O)[C@H](CCC(=O)[*:2])N[*:1]; NMeI = CC[C@H](C)[C@H](NC)C(=O)O; Sar = CNCC(=O)O

Assays:
[1] = molecular target: T1, human calcitonin receptor (hCTR2) (Homo sapiens, UniProt P30988); assay: hCTR2 assay: induction of cAMP (AlphaScreen cAMP Assay kit) in COS7 cells expressing hCTR2; type: cell-based
T1 construct: expressed in transfected cells
T1 sequence (P30988 25-474): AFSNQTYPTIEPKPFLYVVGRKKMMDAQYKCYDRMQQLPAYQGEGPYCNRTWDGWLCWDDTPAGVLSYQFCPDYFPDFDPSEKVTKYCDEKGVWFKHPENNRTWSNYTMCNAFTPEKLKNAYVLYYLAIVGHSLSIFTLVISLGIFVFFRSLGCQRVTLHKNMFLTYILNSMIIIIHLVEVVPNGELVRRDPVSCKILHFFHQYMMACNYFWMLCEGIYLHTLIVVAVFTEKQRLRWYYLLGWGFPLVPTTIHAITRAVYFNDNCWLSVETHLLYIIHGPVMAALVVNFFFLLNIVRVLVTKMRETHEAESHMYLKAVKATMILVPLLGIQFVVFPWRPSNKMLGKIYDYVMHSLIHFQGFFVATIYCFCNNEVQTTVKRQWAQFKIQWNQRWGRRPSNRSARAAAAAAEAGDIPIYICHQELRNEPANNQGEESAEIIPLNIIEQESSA
Procedure, shortened: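 Stable RAMP-naive COS7 clone expressing hCTR2 was stimulated with increasing peptide concentrations in Tyrode buffer (pH 7.4) with 100 µM IBMX and 0.1% casein for 15 min at 37° C. Cells were lysed and cAMP measured by AlphaScreen. EC50 and efficacy relative to pramlintide came from 4PL curve fits.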

[2] = molecular target: T2, human amylin receptor 3 (hAMYR3) consisting of hCTR2 co-expressed with human Receptor Activity Modifying Protein 3 (hRAMP3) (Homo sapiens, UniProt O60896+P30988); assay: hAMYR3 assay: induction of cAMP (AlphaScreen cAMP Assay kit) in COS7 cells expressing hAMYR3; type: cell-based
T2 construct: expressed in transfected cells
T2 sequence (P30988 25-474): T1 sequence (P30988 25-474)
T2 sequence (O60896 24-148 partner): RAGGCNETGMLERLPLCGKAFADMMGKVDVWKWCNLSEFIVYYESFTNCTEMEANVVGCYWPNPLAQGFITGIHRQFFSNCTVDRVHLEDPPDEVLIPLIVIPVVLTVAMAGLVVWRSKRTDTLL
Procedure, shortened: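 Stable COS7 clone co-expressing hCTR2 and hRAMP3, stimulated 15 min at 37° C with increasing peptide in Tyrode buffer pH 7.4 with 100 µM IBMX and 0.1% casein. cAMP measured by AlphaScreen after lysis; EC50 and % efficacy versus pramlintide from 4PL fit.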

[3] = Solubility assessment (turbidity absorbance at 325 nm); type: physicochemical; details: stock 2 mg/ml diluted 1:1, ambient temperature (typically 25°C), n=1; for Solubility, Acetate buffer pH 4: 100 mM acetate buffer pH 4.0; for Solubility, Acetate buffer pH 5: 100 mM acetate buffer pH 5.0; for Solubility, Histidine buffer pH 6: 100 mM histidine buffer pH 6.0; for Solubility, Histidine buffer pH 7: 100 mM histidine buffer pH 7.0; for Solubility, Phosphate buffer pH 6: 100 mM phosphate buffer pH 6.0; for Solubility, Phosphate buffer pH 7: 100 mM phosphate buffer pH 7.0; for Solubility, Phosphate buffer pH 7.5: 100 mM phosphate buffer pH7.5
Procedure, shortened: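 Stock 2 mg/ml peptide, H2O/HCl pH 2.5; 1:1 into 100 mM buffers: acetate pH 4.0/5.0, His pH 6.0/7.0, phosphate pH 6.0/7.0/7.5. A280 + A325, ~25°C, n=1. Soluble ≥ 1 mg/ml if A325 ≤ 0.02.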

Row | pEC50 ([1]; cAMP induction in COS7 cells expressing hCTR2, average of a minimum of 3 determinations, read-out: hCTR2 EC50) | pEC50 ([2]; cAMP induction in COS7 cells expressing hAMYR3, average of a minimum of 3 determinations, read-out: hAMY R3 EC50) | Structure (SMILES) | pEC50 [1] | pEC50 [2] | Solubility, Acetate buffer pH 4 [3] | Solubility, Acetate buffer pH 5 [3] | Solubility, Histidine buffer pH 6 [3] | Solubility, Histidine buffer pH 7 [3] | Solubility, Phosphate buffer pH 6 [3] | Solubility, Phosphate buffer pH 7 [3] | Solubility, Phosphate buffer pH 7.5 [3]
1 | – | – | CC[C@H](C)[C@@H](C(=O)N[C@@H](CC(C)C)C(=O)N[C@@H](CO)C(=O)N[C@@H](CO)C(=O)N[C@H](C(=O)N[C@@H](CC(N)=O)C(=O)N[C@H](C(=O)NCC(=O)N[C@@H](CO)C(=O)N[C@@H](CC(N)=O)C(=O)N[C@H](C(=O)N[C@@H](Cc1ccccc1)C(N)=O)[C@@H](C)O)C(C)C)[C@@H](C)O)N(C)C(=O)[C@H](C)NC(=O)CN(C)C(=O)[C@H](Cc1ccccc1)NC(=O)[C@H](CC(N)=O)NC(=O)[C@H](CC(N)=O)NC(=O)[C@H](CO)NC(=O)[C@H](CO)NC(=O)[C@H](CCCNC(=N)N)NC(=O)[C@H](Cc1c[nH]cn1)NC(=O)[C@H](CC(C)C)NC(=O)[C@H](Cc1ccccc1)NC(=O)[C@H](CCC(=O)O)NC(=O)[C@H](C)NC(=O)[C@H](CC(C)C)NC(=O)[C@H](CCCNC(=N)N)NC(=O)[C@H](CCC(N)=O)NC(=O)[C@@H](NC(=O)[C@H](C)NC(=O)[C@@H]1CSSC[C@H](NC(=O)[C@H](CCCNC(=N)N)NC(=O)CC[C@H](NC(=O)CCCCCCCCCCCCCCCCCCC(=O)O)C(=O)O)C(=O)N[C@@H](CC(N)=O)C(=O)N[C@@H]([C@@H](C)O)C(=O)N[C@@H](C)C(=O)N[C@@H]([C@@H](C)O)C(=O)N1)[C@@H](C)O [Compound 115, [19CD]-isoGlu-RC()NTATC()ATQRLAEFLHRSSNNF-Gly(Me)-A-Ile(Me)-LSSTNVGSNTF-NH2] ({C20 diacid-γGlu}-RCNTATCATQRLAEFLHRSSNNF[Sar]A[NMeI]LSSTNVGSNTF-NH2; disulfide 2-7) | 9.33 | 9.43 | SS (SS indicates solubility ≥ 1mg/ml) | SS (SS indicates solubility ≥ 1mg/ml) | SS (SS indicates solubility ≥ 1mg/ml) | II (II indicates solubility ≤ 1 mg/ml) | II (II indicates solubility ≤ 1 mg/ml) | SS (SS indicates solubility ≥ 1mg/ml) | II (II indicates solubility ≤ 1 mg/ml)
2 | 9.77 | 9.52 | CC[C@H](C)[C@@H](C(=O)N[C@@H](CC(C)C)C(=O)N[C@@H](CO)C(=O)N[C@@H](CO)C(=O)N[C@H](C(=O)N[C@@H](CCC(=O)O)C(=O)N[C@H](C(=O)NCC(=O)N[C@@H](CO)C(=O)N[C@@H](CCC(=O)O)C(=O)N[C@H](C(=O)N1CCC[C@H]1C(N)=O)[C@@H](C)O)C(C)C)[C@@H](C)O)N(C)C(=O)[C@H](C)NC(=O)CN(C)C(=O)[C@H](Cc1ccccc1)NC(=O)[C@H](CO)NC(=O)[C@H](CO)NC(=O)[C@H](CO)NC(=O)[C@H](CO)NC(=O)[C@H](CCCNC(=N)N)NC(=O)[C@H](Cc1c[nH]cn1)NC(=O)[C@H](CC(C)C)NC(=O)[C@H](Cc1ccccc1)NC(=O)[C@H](CCC(=O)O)NC(=O)[C@H](C)NC(=O)[C@H](CC(C)C)NC(=O)[C@H](CCCNC(=N)N)NC(=O)[C@H](CCC(=O)O)NC(=O)[C@@H](NC(=O)[C@H](C)NC(=O)[C@@H]1CSSC[C@H](NC(=O)[C@H](CCCNC(=N)N)NC(=O)CC[C@H](NC(=O)CCCCCCCCCCCCCCCCCCC(=O)O)C(=O)O)C(=O)N[C@@H](CC(N)=O)C(=O)N[C@@H]([C@@H](C)O)C(=O)N[C@@H](C)C(=O)N[C@@H]([C@@H](C)O)C(=O)N1)[C@@H](C)O [Compound 119, [19CD]-isoGlu-RC()NTATC()ATERLAEFLHRSSSSF-Gly(Me)-A-Ile(Me)-LSSTEVGSETP-NH2] ({C20 diacid-γGlu}-RCNTATCATERLAEFLHRSSSSF[Sar]A[NMeI]LSSTEVGSETP-NH2; disulfide 2-7) | – | – | SS (SS indicates solubility ≥ 1mg/ml) | SS (SS indicates solubility ≥ 1mg/ml) | SS (SS indicates solubility ≥ 1mg/ml) | SS (SS indicates solubility ≥ 1mg/ml) | SS (SS indicates solubility ≥ 1mg/ml) | SS (SS indicates solubility ≥ 1mg/ml) | SS (SS indicates solubility ≥ 1mg/ml)
